# Earlier results in patent publication US20040058969A1, “Novel epothilone derivatives, method for the preparation thereof and their pharmaceutical use” (priority 2000, published 2004).
# Tested on: P-glycoprotein-forming multiresistant tumor lines
# Conditions: in vitro, relative to taxol
row,Compound,activity against P-glycoprotein-forming multiresistant tumor lines in comparison to taxol
1,"C/C(=C\c1csc(C)n1)[C@@H]1C[C@@H]2O[C@@H]2CCC[C@H](C)[C@H](O)[C@@H](C)C(=O)C(C)(C)[C@@H](O)CC(=O)O1 [Epothilone A, epothilone A]",significantly higher activity
2,"C/C(=C\c1csc(C)n1)[C@@H]1C[C@@H]2O[C@]2(C)CCC[C@H](C)[C@H](O)[C@@H](C)C(=O)C(C)(C)[C@@H](O)CC(=O)O1 [Epothilone B, epothilone B]",significantly higher activity
